Experimental data from patent US12655131B2, “Pyrazinecarboxamide analog compounds for use in treating cancer” (NOVAPANO, LLC, priority 2019, dated 2026).

Columns and labels:
[1] = system: HCT 116 colorectal carcinoma cells; experiment: Cell proliferation assay (resazurin) in HCT 116 cells; type: cell-based; conditions: Homo sapiens, 72 hr compound incubation, inhibition of proliferation
Description: (§1) HCT 116 colorectal carcinoma cells (ECACC/Sigma-Aldrich #91091005) were seeded in medium (McCoy's 5a+10% FBS) at a cell count of 1500 cells per 100 μL per well in a 96 well edge plate (ThermoFisher #167425). Cells were cultured at 37° C. for 24 hr in 5% CO2 environment (culture conditions) in a Nuaire incubator (humidified). Serially diluted test compounds (100 μL) within the desired testing concentration range (e.g., 0.014-30 μM) were added to the culture plate and the cells were further incubated in culture conditions for 72 hr. The experiment was terminated at the designated incubation time by replacing the medium with 100 μL, of 1 mM resazurin (Sigma-Aldrich #R7017) prepared in culture medium, and the plates were further incubated in culture conditions for 4-6 hr. Fluorescence was recorded using a multimodal plate reader (Biotek Synergy Neo) at an excitation wavelength of 535 nm and emission wavelength of 590 nm to obtain relative fluorescence units.
(§2) Data were analyzed as follows: the background fluorescence (blank containing only medium) value was subtracted from each reading and normalized with the vehicle control ([…]treated cells) to obtain percent survival/proliferation. Percent survival was subtracted from 100 to get the percent inhibition of proliferation which was used to calculate IC50 values.

[2] = Microsome stability, rat liver microsomes; type: in vitro ADME; conditions: NADPH, 37 °C, pH 7.4, read-out: rLM CLint (μg/min/mg)
Description: (§3) In a 96 deep well plate, 2.5 μL of 20 μM of each test compound in potassium phosphate buffer (pH 7,4) with 2% 1:9 DMSO:acetonitrile were added to 5 μL of 5 mg/mL microsomes (human liver microsomes (hLM), rat liver microsomes (rLM), or mouse liver microsomes (mLM)) and 37.5 μL of 100 mM prewarmed phosphate buffer (pH 7.4). Time point 0 (T0) samples were immediately quenched with 200 μL of chilled acetonitrile containing 50 ng/mL of internal standard. 5 4, of 10 mM NADPH was added to all other samples to start the reaction. The plate was incubated in a reciprocating water bath at 37 ° C. on 50 rpm for the duration of the assay. The remaining samples were quenched with 200 μL of chilled acetonitrile containing 50 ng/mL of internal standard at various timepoints. The samples were analyzed by LC-MS/MS (Sciex API 4500 QTrap). The % remaining, terminal elimination rate constant (K), half-life (t1/2), and intrinsic clearance (CLint) were calculated.

[3] = system: MIA PaCa-2 human pancreatic carcinoma cells; experiment: Cell proliferation assay (resazurin) in MIA PaCa-2 cells; type: cell-based; conditions: 96 hr compound incubation, inhibition of proliferation
Description: as §1, §2
Testing in MIA PaCa-2 human pancreatic carcinoma cells (ATCC® CRL-1420™) was done identically, except that the medium used was DMFM+10% FBS+2.5% horse serum, the cells were seeded at a cell count of 3000 cells per 100 μL per well and the test compound incubation time was 72 or 96 hr. The potency of compounds in other cell lines may be determined in an analogous manner.

[4] = Microsome stability, human liver microsomes; type: in vitro ADME; conditions: NADPH, 37 °C, pH 7.4, read-out: hLM CLint (μg/min/mg)
Description: as §3

[5] = Microsome stability, mouse liver microsomes; type: in vitro ADME; conditions: NADPH, 37 °C, pH 7.4, read-out: mLM CLint (μg/min/mg)
Description: as §3

Structure (SMILES) | IC50 [1] | microsomal CLint at 1 µM [2] | IC50 [3] | microsomal CLint at 1 µM [4] | microsomal CLint at 1 µM [5]
Nc1nc(NCc2ccc(I)cc2)c(Cl)nc1C(=O)NCCN1CCN(Cc2ccccc2)CC1 [Compound 1, 3-amino-N-(2-(4-benzylpiperazin-1-yl)ethyl)-6-chloro-5-(4-iodobenzylamino) pyrazine-2-carboxamide] | 16.3 µM | 201 µL/min/mg | 30.9 µM | 258 µL/min/mg | 176 µL/min/mg
N/C(=N\C(=O)c1nc(Cl)c(NCc2ccc(I)cc2)nc1N)NCC1CCN(CCc2ccccc2)CC1 [Compound 51, 3-amino-N-(amino(((1-phenethylpiperidin-1-yl)methyl)amino)methylene)-6-chloro-5-((4-iodobenzyl)amino)pyrazine-2-carboxamide] | 0.69 µM | 29 µL/min/mg | 1.9 µM | 52 µL/min/mg | 67 µL/min/mg
N/C(=N\C(=O)c1nc(Cl)c(NCc2ccc(I)cc2)nc1N)NCCCOc1ccc(Cl)cc1 [Compound 52, 3-amino-4-(amino(3-(4-chlorophenoxy)propylamino)methylene)-6-chloro-5-(4-iodobenzylamino)pyrazine-2-carboxamide] | 1.33 µM | 49 µL/min/mg | 2.92 µM | 20 µL/min/mg | 81 µL/min/mg
